Experimental data reported in patent US20250011307A1, “CRYSTALLINE FORMS OF BIARYL YAP/TAZ-TEAD PROTEIN-PROTEIN INTERACTION INHIBITORS” (Novartis AG, priority 2021, published 2025).
Counter-ions that a name gives are not always drawn.

Key:
Assay type in all cases: physicochemical
[1] = Hygroscopicity (loss on drying by TGA and XRPD, as is and after storage at 92% / 80% RH); details: Compound B forms, TGA temperature per cell: free form @233° C., succinate @205° C., L-malate @200° C., L-lactate @200° C.
[2] = Solubility after equilibration at 25° C. for 24 h, with final pH and XRPD of solid residues; details: Compound B forms
[3] = Solid state bulk stability stress test (HPLC degradation products, color, XRPD); design: key to CL color: A: No change; B: Slight discoloration; C: Medium discoloration; D: Strong discoloration; details: Compound B forms
[4] = Excipient compatibility stress test (HPLC degradation products, color); design: key to CL color: A: No change; B: Slight discoloration; C: Medium discoloration; D: Strong discoloration; details: Compound B forms
[5] = Xenon light stress test of bulk (HPLC degradation products, color, XRPD); design: key to CL color: A: No change; B: Slight discoloration; C: Medium discoloration; D: Strong discoloration; details: Compound B forms, Xenon light (1200 kLuxh, 25° C.)
[6] = 2 weeks 50° C./75% RH, 1% in HGC powder
[7] = 2 weeks 50° C./75% RH, 1% in HPMC powder
[8] = 2 weeks 50° C./closed, 1% in HGC powder
[9] = 2 weeks 50° C./closed, 1% in HPMC powder

SMILES: CNC[C@]1(c2ccccc2)Oc2cc(F)c(Cl)c(-c3c(C(N)=O)ccc(OC)c3F)c2[C@@H]1C [Compound B Succinate salt, 2-((2S,3S,4S)-5-Chloro-6-fluoro-3-methyl-2-((methylamino)methyl)-2-phenyl-2,3-dihydrobenzofuran-4-yl)-3-fluoro-4-methoxybenzamide]
- Loss on drying by TGA ([1]; After 1 day at 92% RH): 0.67%@205 °C
- Loss on drying by TGA ([1]; Hygroscopicity, As is): 0.56%@205 °C
- final pH ([2]; Blank FaSSIF): [6.06]
- Sol. (solubility) ([2]; Blank FaSSIF, target concentration 2 mg/mL): >2000 µg/mL
- final pH ([2]; FaSSIF V2 pH 6.5): [6.06]
- Sol. (solubility) ([2]; FaSSIF V2 pH 6.5, target concentration 2 mg/mL): >2000 µg/mL
- final pH ([2]; FeSSIF V2 pH 5.8): [5.72]
- Sol. (solubility) ([2]; FeSSIF V2 pH 5.8, target concentration 2 mg/mL): >2000 µg/mL
- final pH ([2]; SGF pH 2.0): [2.20]
- Sol. (solubility) ([2]; SGF pH 2.0, target concentration 2 mg/mL): >2000 µg/mL
- final pH ([2]; Water): [4.97]
- Sol. (solubility) ([2]; Water, target concentration 2 mg/mL): >2000 µg/mL
- final pH ([2]; pH 1.2, 100 mM HCl): [1.17]
- Sol. (solubility) ([2]; pH 1.2, 100 mM HCl, target concentration 2 mg/mL): >2000 µg/mL
- final pH ([2]; pH 3.0, 50 mM citrate buffer): [3.09]
- Sol. (solubility) ([2]; pH 3.0, 50 mM citrate buffer, target concentration 2 mg/mL): >2000 µg/mL
- final pH ([2]; pH 4.7, 50 mM acetate buffer): [4.70]
- Sol. (solubility) ([2]; pH 4.7, 50 mM acetate buffer, target concentration 2 mg/mL): >2000 µg/mL
- final pH ([2]; pH 6.8, 50 mM phosphate buffer): [6.64]
- final pH ([2]; pH 6.8, 50 mM phosphate buffer with 50 mM Na taurocholate): [6.43]
- Sol. (solubility) ([2]; pH 6.8, 50 mM phosphate buffer with 50 mM Na taurocholate, target concentration 2 mg/mL): >2000 µg/mL
- Sol. (solubility) ([2]; pH 6.8, 50 mM phosphate buffer, target concentration 2 mg/mL): >2000 µg/mL
- Bulk (XRPD) ([3]; 2 weeks 50° C./75% RH): No change
- CL color ([3]; 2 weeks 50° C./75% RH): A
- DP[%] degradation products, Bulk (HPLC) ([3]; 2 weeks 50° C./75% RH): 0.09%
- Bulk (XRPD) ([3]; 2 weeks 80° C./11% RH): No change
- CL color ([3]; 2 weeks 80° C./11% RH): A
- DP[%] degradation products, Bulk (HPLC) ([3]; 2 weeks 80° C./11% RH): 0.08%
- Bulk (XRPD) ([3]; 2 weeks 80° C./75% RH): No change
- CL color ([3]; 2 weeks 80° C./75% RH): A
- DP[%] degradation products, Bulk (HPLC) ([3]; 2 weeks 80° C./75% RH): 0.17%
- CL color [4, 6]: A
- DP[%] degradation products [4, 6]: 0.25%
- CL color [4, 7]: A
- DP[%] degradation products [4, 7]: 0.99%
- CL color [4, 8]: A
- DP[%] degradation products [4, 8]: 0.15%
- CL color [4, 9]: A
- DP[%] degradation products [4, 9]: 0.17%
- Bulk amber vial (XRPD) ([5]; amber vial): No change
- CL color ([5]; amber vial): A
- DP[%] degradation products, Bulk amber vial (HPLC) ([5]; amber vial): 0.13%
- Bulk clear quartz vial (XRPD) ([5]; clear quartz vial): No change
- CL color ([5]; clear quartz vial): B
- DP[%] degradation products, Bulk clear quartz vial (HPLC) ([5]; clear quartz vial): 2.38%
